For experiment [1], the target named is Rho kinase 2 (Homo sapiens, UniProt O75116). The experiment is described as follows: In vitro Rho kinase inhibitory activity assay (ADP-Glo kit, Myelin Basic Protein substrate). It is filed as biochemical. Conditions: 10 μM ATP, 25° C., read-out: ROCK2 inhibitory activity (Ki, range of activity). Summed up:
(§1)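 Each kinase (ROCK1 or ROCK2) sat with compound for 30 min at 25 °C before 10 μM ATP started a 1 h reaction on 2.5 μM myelin basic protein (Tris pH 7.5, MgCl2, BSA, DTT, 1% DMSO). ADP formed was read by ADP-Glo luminescence. Dose-response IC50s were converted to Ki by Cheng-Prusoff.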

Experiment [2] has as its target Rho kinase 1 (Homo sapiens, UniProt Q13464). The experiment is described as above. It counts as biochemical. Conditions: 10 μM ATP, 25° C., read-out: ROCK1 inhibitory activity (Ki, range of activity). Summed up:
as §1

Structures are written as SMILES. Bounds are passed on as bounds.

Chain of Rho kinase 1 (Q13464 whole entry): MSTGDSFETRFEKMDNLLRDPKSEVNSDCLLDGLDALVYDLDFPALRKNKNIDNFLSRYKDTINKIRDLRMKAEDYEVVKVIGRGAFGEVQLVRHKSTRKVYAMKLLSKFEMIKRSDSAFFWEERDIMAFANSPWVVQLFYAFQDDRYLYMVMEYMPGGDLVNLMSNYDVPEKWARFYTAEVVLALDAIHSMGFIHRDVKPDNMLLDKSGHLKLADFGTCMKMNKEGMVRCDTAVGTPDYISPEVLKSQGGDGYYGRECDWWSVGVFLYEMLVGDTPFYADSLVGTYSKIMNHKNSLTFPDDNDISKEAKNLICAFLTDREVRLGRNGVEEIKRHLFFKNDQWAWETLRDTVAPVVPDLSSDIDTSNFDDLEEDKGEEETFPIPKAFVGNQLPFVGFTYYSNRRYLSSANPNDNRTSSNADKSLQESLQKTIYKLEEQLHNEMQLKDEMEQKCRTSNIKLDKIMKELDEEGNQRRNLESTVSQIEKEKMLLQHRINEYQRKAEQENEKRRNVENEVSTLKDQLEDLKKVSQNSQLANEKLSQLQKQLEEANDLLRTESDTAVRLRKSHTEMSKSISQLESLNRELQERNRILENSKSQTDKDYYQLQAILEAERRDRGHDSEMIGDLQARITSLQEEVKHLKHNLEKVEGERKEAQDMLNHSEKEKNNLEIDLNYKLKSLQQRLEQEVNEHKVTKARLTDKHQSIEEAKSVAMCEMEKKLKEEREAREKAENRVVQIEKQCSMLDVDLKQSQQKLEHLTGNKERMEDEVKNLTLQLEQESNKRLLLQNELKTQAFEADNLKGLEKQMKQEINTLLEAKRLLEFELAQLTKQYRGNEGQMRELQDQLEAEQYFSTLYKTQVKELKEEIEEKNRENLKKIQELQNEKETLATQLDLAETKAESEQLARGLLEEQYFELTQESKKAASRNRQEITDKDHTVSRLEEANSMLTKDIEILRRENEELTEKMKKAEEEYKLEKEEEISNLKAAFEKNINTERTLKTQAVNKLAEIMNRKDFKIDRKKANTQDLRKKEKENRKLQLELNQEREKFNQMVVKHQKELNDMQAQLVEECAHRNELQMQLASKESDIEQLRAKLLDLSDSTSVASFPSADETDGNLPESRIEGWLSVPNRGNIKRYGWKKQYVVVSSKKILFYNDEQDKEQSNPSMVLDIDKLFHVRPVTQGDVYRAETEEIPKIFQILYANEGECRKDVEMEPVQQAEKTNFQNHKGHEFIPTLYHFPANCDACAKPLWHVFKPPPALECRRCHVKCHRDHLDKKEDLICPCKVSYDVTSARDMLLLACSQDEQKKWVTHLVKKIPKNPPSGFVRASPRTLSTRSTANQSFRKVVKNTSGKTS
Chain of Rho kinase 2 (O75116 whole entry): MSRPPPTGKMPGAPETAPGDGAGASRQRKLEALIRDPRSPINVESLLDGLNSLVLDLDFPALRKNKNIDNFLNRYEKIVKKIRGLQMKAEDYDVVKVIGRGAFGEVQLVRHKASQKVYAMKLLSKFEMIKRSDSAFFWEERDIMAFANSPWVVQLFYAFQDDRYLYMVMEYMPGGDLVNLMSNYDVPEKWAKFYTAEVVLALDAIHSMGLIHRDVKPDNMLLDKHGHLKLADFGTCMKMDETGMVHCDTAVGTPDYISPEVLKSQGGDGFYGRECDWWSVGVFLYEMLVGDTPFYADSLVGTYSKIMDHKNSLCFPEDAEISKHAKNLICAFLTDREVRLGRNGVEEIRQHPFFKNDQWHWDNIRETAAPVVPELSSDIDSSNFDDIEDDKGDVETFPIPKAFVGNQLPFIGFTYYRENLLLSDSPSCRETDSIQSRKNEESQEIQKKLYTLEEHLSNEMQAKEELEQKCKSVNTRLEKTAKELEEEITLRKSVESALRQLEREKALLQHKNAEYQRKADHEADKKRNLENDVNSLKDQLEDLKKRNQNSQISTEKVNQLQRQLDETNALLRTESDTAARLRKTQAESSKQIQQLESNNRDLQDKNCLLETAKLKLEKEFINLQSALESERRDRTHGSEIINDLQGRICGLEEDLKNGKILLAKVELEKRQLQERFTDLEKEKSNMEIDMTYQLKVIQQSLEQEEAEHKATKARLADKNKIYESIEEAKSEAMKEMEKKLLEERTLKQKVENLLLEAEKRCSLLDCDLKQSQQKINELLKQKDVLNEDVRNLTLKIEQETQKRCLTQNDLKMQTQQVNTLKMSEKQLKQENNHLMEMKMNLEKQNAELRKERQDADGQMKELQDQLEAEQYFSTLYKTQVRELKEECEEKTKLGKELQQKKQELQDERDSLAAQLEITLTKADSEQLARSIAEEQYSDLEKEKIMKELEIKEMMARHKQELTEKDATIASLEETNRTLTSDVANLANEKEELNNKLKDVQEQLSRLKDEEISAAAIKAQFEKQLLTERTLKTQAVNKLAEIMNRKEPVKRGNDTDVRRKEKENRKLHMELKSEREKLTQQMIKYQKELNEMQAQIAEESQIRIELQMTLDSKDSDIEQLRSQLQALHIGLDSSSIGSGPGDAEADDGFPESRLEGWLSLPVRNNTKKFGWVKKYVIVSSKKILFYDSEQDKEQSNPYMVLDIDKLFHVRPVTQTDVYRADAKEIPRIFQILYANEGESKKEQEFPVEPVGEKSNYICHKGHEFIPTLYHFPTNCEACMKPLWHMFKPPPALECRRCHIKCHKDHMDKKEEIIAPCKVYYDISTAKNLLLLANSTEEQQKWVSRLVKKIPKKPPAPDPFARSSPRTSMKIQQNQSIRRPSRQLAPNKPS

The Ki is a dissociation constant, usually derived from enzyme kinetics or from competition with a known ligand. Regarding `CC1=C(C(=O)Nc2ccc3[nH]ncc3c2)C(c2ccc(C(F)(F)F)cc2)n2nc(C(=O)O)cc2N1` (stereo not drawn) [Example 73, 6-((1H-indazol-5-yl)carbamoyl)-5-methyl-7-(4-(trifluoromethyl)phenyl)-4,7-dihydropyrazolo[1,5-a]pyrimidine-2-carboxylic acid], the Ki in experiment [1] and in experiment [2] was less than 0.05 µM throughout.

As for `CC1=C(C(=O)Nc2ccc3cnccc3c2)C(c2ccc(Br)cc2)n2nc(CO)cc2N1` (single isomer, unassigned) [Example 61A, 7-(4-bromophenyl)-2-(hydroxymethyl)-N-(isoquinolin-6-yl)-5-methyl-4,7-dihydropyrazolo[1,5-a]pyrimidine-6-carboxamide], the Ki in experiment [1] and in experiment [2] was less than 0.05 µM each time.

As for `CC1=C(C(=O)Nc2ccc3cnccc3c2)C(c2ccc(C(F)(F)F)c(F)c2)n2nc(CN(C)C)cc2N1` (single isomer, unassigned) [Example 94B, 2-((dimethylamino)methyl)-7-(3-fluoro-4-(trifluoromethyl)phenyl)-N-(isoquinolin-6-yl)-5-methyl-4,7-dihydropyrazolo[1,5-a]pyrimidine-6-carboxamide], the Ki in experiment [1] and in experiment [2] was less than 0.05 µM each time.

For the molecule `CC1=C(C(=O)Nc2ccc3cnccc3c2)C(c2ccc(C)c(F)c2)n2nc(CN(C)C)cc2N1` (single isomer, unassigned) [Example 110B, 2-((dimethylamino)methyl)-7-(3-fluoro-4-methylphenyl)-N-(isoquinolin-6-yl)-5-methyl-4,7-dihydropyrazolo[1,5-a]pyrimidine-6-carboxamide], the inhibition constant Ki in experiment [1] and in experiment [2] was less than 0.05 µM in each case.

On to `CC1=C(C(=O)Nc2ccc3[nH]ncc3c2)C(c2ccc(C(F)(F)F)cc2)n2nc(C#N)cc2N1` (stereo not drawn) [Example 34, 2-cyano-N-(1H-indazol-5-yl)-5-methyl-7-(4-(trifluoromethyl)phenyl)-4,7-dihydropyrazolo[1,5-a]pyrimidine-6-carboxamide], for which the Ki in experiment [1] and in experiment [2] was less than 0.05 µM in each case.

For `CC1=C(C(=O)Nc2ccc3cnccc3c2)C(c2ccc(C(F)(F)F)c(F)c2)n2nc(C(=O)N(C)CCCN(C)C)cc2N1` (stereo not drawn) [Example 89, N2-(3-(dimethylamino)propyl)-7-(3-fluoro-4-(trifluoromethyl)phenyl)-N6-(isoquinolin-6-yl)-N2,5-dimethyl-4,7-dihydropyrazolo[1,5-a]pyrimidine-2,6-dicarboxamide], the Ki in experiment [1] and in experiment [2] was less than 0.05 µM in each case.

Turning to `CCOC(=O)c1cc2n(n1)C(c1ccc(F)cc1)C(C(=O)Nc1ccc3[nH]ncc3c1)=C(C)N2` (single isomer, unassigned) [Example 4B, ethyl 6-((1H-indazol-5-yl)carbamoyl)-7-(4-fluorophenyl)-5-methyl-4,7-dihydropyrazolo[1,5-a]pyrimidine-2-carboxylate], the Ki in experiment [1] and in experiment [2] was less than 0.05 µM each time.

For `CC1=C(C(=O)Nc2ccc3cnccc3c2)C(c2ccc(C(F)(F)F)c(F)c2)n2nc(CN(C)CC3CCN(C)CC3)cc2N1` (single isomer, unassigned) [Example 104A, 7-(3-fluoro-4-(trifluoromethyl)phenyl)-N-(isoquinolin-6-yl)-5-methyl-2-((methyl((1-methylpiperidin-4-yl)methyl)amino)methyl)-4,7-dihydropyrazolo[1,5-a]pyrimidine-6-carboxamide], the Ki in experiment [1] and in experiment [2] was less than 0.05 µM in each case.

As to `CC1=C(C(=O)Nc2ccc3cnccc3c2)C(c2ccc(C)cc2F)n2nc(CO)cc2N1` (stereo not drawn) [Example 59, 7-(2-fluoro-4-methylphenyl)-2-(hydroxymethyl)-N-(isoquinolin-6-yl)-5-methyl-4,7-dihydropyrazolo[1,5-a]pyrimidine-6-carboxamide], the Ki in experiment [1] and in experiment [2] was less than 0.05 µM in each case.

For `CC1=C(C(=O)Nc2ccc3cnccc3c2)C(c2ccc(C(F)(F)F)c(F)c2F)n2nc(CN(C)C)cc2N1` (stereo not drawn) [Example 122, 7-(2,3-difluoro-4-(trifluoromethyl)phenyl)-2-((dimethylamino)methyl)-N-(isoquinolin-6-yl)-5-methyl-4,7-dihydropyrazolo[1,5-a]pyrimidine-6-carboxamide], the Ki in experiment [1] and in experiment [2] was less than 0.05 µM throughout.

Regarding `CCOC(=O)c1cnn2c1NC(C)=C(C(=O)Nc1ccc3[nH]ncc3c1)C2c1ccc(F)cc1` (stereo not drawn) [Example 17, ethyl 6-((1H-indazol-5-yl)carbamoyl)-7-(4-fluorophenyl)-5-methyl-4,7-dihydropyrazolo[1,5-a]pyrimidine-3-carboxylate], the Ki in experiment [1] and in experiment [2] was greater than 0.5 µM each time.

Take `CC1=C(C(=O)Nc2ccc3[nH]ncc3c2)C(c2ccc(F)cc2)n2nc(C(=O)N3CCNCC3)cc2N1` (stereo not drawn) [Example 93, 7-(4-fluorophenyl)-N-(1H-indazol-5-yl)-5-methyl-2-(piperazine-1-carbonyl)-4,7-dihydropyrazolo[1,5-a]pyrimidine-6-carboxamide]: the Ki in experiment [1] and in experiment [2] was less than 0.05 µM in each case.

For `CC1=C(C(=O)Nc2ccc3[nH]ncc3c2)C(c2ccc(F)cc2)n2ncc(C(N)=O)c2N1` (stereo not drawn) [Example 19, 7-(4-fluorophenyl)-N6-(1H-indazol-5-yl)-5-methyl-4,7-dihydropyrazolo[1,5-a]pyrimidine-3,6-dicarboxamide], the Ki in experiment [1] and in experiment [2] was 0.05 to 0.5 µM throughout.

On to `CCOC(=O)c1cc2n(n1)C(c1ccc(O)cc1)C(C(=O)Nc1ccc3cnccc3c1)=C(C)N2` (stereo not drawn) [Example 9, ethyl 7-(4-hydroxyphenyl)-6-(isoquinolin-6-ylcarbamoyl)-5-methyl-4,7-dihydropyrazolo[1,5-a]pyrimidine-2-carboxylate], for which the Ki in experiment [1] and in experiment [2] was less than 0.05 µM each time.

As to `COC1CN(Cc2cc3n(n2)C(c2ccc(C(F)(F)F)c(F)c2)C(C(=O)Nc2ccc4cnccc4c2)=C(C)N3)C1` (stereo not drawn) [Example 100, 7-(3-fluoro-4-(trifluoromethyl)phenyl)-N-(isoquinolin-6-yl)-2-((3-methoxyazetidin-1-yl)methyl)-5-methyl-4,7-dihydropyrazolo[1,5-a]pyrimidine-6-carboxamide], the Ki in experiment [1] and in experiment [2] was less than 0.05 µM each time.

Regarding `CC1=C(C(=O)Nc2ccc3[nH]ncc3c2)C(c2ccc(C(F)(F)F)cc2)n2nc(C(=O)N3CCN(C)CC3)cc2N1` (stereo not drawn) [Example 76, N-(1H-indazol-5-yl)-5-methyl-2-(4-methylpiperazine-1-carbonyl)-7-(4-(trifluoromethyl)phenyl)-4,7-dihydropyrazolo[1,5-a]pyrimidine-6-carboxamide], the Ki in experiment [1] and in experiment [2] was less than 0.05 µM in each case.

In the case of `CC1=C(C(=O)Nc2ccc3cnccc3c2)C(c2ccc(C(F)(F)F)c(F)c2)n2nc(C(=O)N(C)CCN3CCCCC3)cc2N1` (single isomer, unassigned) [Example 78A, 7-(3-fluoro-4-(trifluoromethyl)phenyl)-N6-(isoquinolin-6-yl)-N2,5-dimethyl-N2-(2-(piperidin-1-yl)ethyl)-4,7-dihydropyrazolo[1,5-a]pyrimidine-2,6-dicarboxamide], the Ki is less than 0.05 µM in experiment [1] and 0.05 to 0.5 µM in experiment [2].

Take `CC1=C(C(=O)Nc2ccc3[nH]ncc3c2)C(c2ccc(Cl)cc2)n2nnnc2N1` (single isomer, unassigned) [Example 24A, 7-(4-chlorophenyl)-N-(1H-indazol-5-yl)-5-methyl-4,7-dihydrotetrazolo[1,5-a]pyrimidine-6-carboxamide]: the Ki in experiment [1] and in experiment [2] was less than 0.05 µM each time.

Turning to `CC1=C(C(=O)Nc2ccc3cnccc3c2)C(c2ccc(C(F)(F)F)c(F)c2)n2nc(CCN(C)C)cc2N1` (stereo not drawn) [Example 37, 2-(2-(dimethylamino)ethyl)-7-(3-fluoro-4-(trifluoromethyl)phenyl)-N-(isoquinolin-6-yl)-5-methyl-4,7-dihydropyrazolo[1,5-a]pyrimidine-6-carboxamide], the Ki in experiment [1] and in experiment [2] was less than 0.05 µM in each case.

Turning to `CC1=C(C(=O)Nc2ccc3cnccc3c2)C(c2ccc(Br)cc2)n2nc(CO)cc2N1` (single isomer, unassigned) [Example 61B, 7-(4-bromophenyl)-2-(hydroxymethyl)-N-(isoquinolin-6-yl)-5-methyl-4,7-dihydropyrazolo[1,5-a]pyrimidine-6-carboxamide], the Ki in experiment [1] and in experiment [2] was 0.05 to 0.5 µM in each case.

Consider `CC1=C(C(=O)Nc2ccc3cnccc3c2)C(c2ccc(C(F)(F)F)c(F)c2)n2nc(CN)cc2N1` (stereo not drawn) [Example 112, 2-(aminomethyl)-7-(3-fluoro-4-(trifluoromethyl)phenyl)-N-(isoquinolin-6-yl)-5-methyl-4,7-dihydropyrazolo[1,5-a]pyrimidine-6-carboxamide], for which the Ki in experiment [1] and in experiment [2] was less than 0.05 µM in each case.

Regarding `COc1ccccc1-c1cc2n(n1)C(c1ccc(F)cc1)C(C(=O)Nc1ccc3[nH]ncc3c1)=C(C)N2` (stereo not drawn) [Example 21, 7-(4-fluorophenyl)-N-(1H-indazol-5-yl)-2-(2-methoxyphenyl)-5-methyl-4,7-dihydropyrazolo[1,5-a]pyrimidine-6-carboxamide], the Ki in experiment [1] and in experiment [2] was 0.05 to 0.5 µM throughout.

As for `CC1=C(C(=O)Nc2ccc3cnccc3c2)C(C23CC4CC(CC(C4)C2)C3)n2nc(CO)cc2N1` (stereo not drawn) [Example 48, 7-((3r,5r,7r)-adamantan-1-yl)-2-(hydroxymethyl)-N-(isoquinolin-6-yl)-5-methyl-4,7-dihydropyrazolo[1,5-a]pyrimidine-6-carboxamide], the Ki in experiment [1] and in experiment [2] was 0.05 to 0.5 µM each time.

As for `CC1=C(C(=O)Nc2ccc3[nH]ncc3c2)C(c2ccc(F)cc2)n2nnnc2N1` (single isomer, unassigned) [Example 23B, 7-(4-fluorophenyl)-N-(1H-indazol-5-yl)-5-methyl-4,7-dihydrotetrazolo[1,5-a]pyrimidine-6-carboxamide], the Ki in experiment [1] and in experiment [2] was 0.05 to 0.5 µM throughout.

The record behind these values is patent publication US10584128B2, “Bicyclic dihydropyrimidine-carboxamide derivatives as Rho-Kinase inhibitors” (CHIESI FARMACEUTICI S.p.A., priority 2016, dated 2020).
